Measurements: US20260285816A1, “Piperazinyl-Modified Quinazolinyl-Aryl Urea Derivative, And Preparation Method And Use Thereof” (Guangxi Normal University, priority 2025, published 2026)

Experiments:
Type in all cases: cell-based, human
SK-OV-3 cells = assay: CCK-8 anti-proliferative assay, SK-OV-3; conditions: Homo sapiens, SK-OV-3; Table 9; co-incubated 48 h; read-out: Anti-proliferative activity (IC50 ± standard deviation) SK-OV-3
Protocol: (§1) The obtained quinazolinyl-aryl urea derivatives were screened for compounds with optimal activity using the following method.
(§2) Experimental Procedure for Anti-Proliferative Activity Evaluation: The CCK-8 assay was employed. Cells in logarithmic growth phase were harvested, adjusted to appropriate density, and uniformly seeded into 96-well plates using a multichannel pipette (180 μL cell suspension containing complete medium per well, 5,000 cells/well). Blank control wells (containing basal medium, CCK-8 solution, and DMSO only) were set. Cells were incubated at 37° C. under 5% CO2. After 70% confluency was reached, test compounds (target compounds/positive controls) were added at final concentrations of 1, 2, 4, 6, 8, 12, 16, 24, and 30 μM (3 repeated wells per concentration). Compounds were pre-dissolved in DMSO, sterilized, and diluted with medium before adding 20 μL/well. After co-incubation for designated durations, 10 μL CCK-8 solution was added per well followed by 1-4 h incubation (different cells have different incubation times). […] Inhibition rates were calculated as: (ODcontrol−ODtreatment)/ODcontrol×100%. Median inhibitory concentrations (IC50 values) were derived using Origin v8.0 software.

MG-63 cells = assay: CCK-8 anti-proliferative assay, MG-63; conditions: Homo sapiens, MG-63; Table 7; co-incubated 48 h; read-out: Anti-proliferative activity (IC50 ± standard deviation) MG-63
Excerpt: (§3) The obtained quinazolinyl-aryl urea derivatives were screened for compounds with optimal activity using the following method. All cell lines employed in this experiment were of human origin, including: bladder cancer cells: J82, UM-UC-3, T24, 5637, pancreatic cancer cells: BxPC-3, PANC-1, osteosarcoma cells: 143B, MG-63, cervical cancer cells: HeLa, breast cancer cells: MCF-7, NSCLC cells: A549, hepatoblastoma cells: Hep G2, and ovarian cancer cells: SK-OV-3, as well as normal cell lines: immortalized ureteral epithelial cells (SV-HUC-1), embryonic lung fibroblasts (WI-38).
(§4) Experimental Procedure for Anti-Proliferative Activity Evaluation: The CCK-8 assay was employed. Cells in logarithmic growth phase were harvested, adjusted to appropriate density, and uniformly seeded into 96-well plates using a multichannel pipette (180 μL cell suspension containing complete medium per well, 5,000 cells/well). Blank control wells (containing basal medium, CCK-8 solution, and DMSO only) were set. Cells were incubated at 37° C. under 5% CO2. After 70% confluency was reached, test compounds (target compounds/positive controls) were added at final concentrations of 1, 2, 4, 6, 8, 12, 16, 24, and 30 μM (3 repeated wells per concentration). Compounds were pre-dissolved in DMSO, sterilized, and diluted with medium before adding 20 μL/well. After co-incubation for designated durations, 10 μL CCK-8 solution was added per well followed by 1-4 h incubation (different cells have different incubation times). The reaction was terminated, and OD (optical density) values at 450 nm were measured using a microplate reader. Inhibition rates were calculated as: (ODcontrol−ODtreatment)/ODcontrol×100%. Median inhibitory concentrations (IC50 values) were derived using Origin v8.0 software.

5637 cells = assay: CCK-8 anti-proliferative assay, 5637; conditions: Homo sapiens; Table 6; co-incubated 48 h; read-out: Anti-proliferative activity (IC50 ± standard deviation) 5637
Protocol: as §1, §2

[1] = system: embryonic lung fibroblasts (WI-38); assay: CCK-8 anti-proliferative assay, normal cells WI-38; conditions: Homo sapiens, WI-38, Table 9, co-incubated 48 h, read-out: Anti-proliferative activity (IC50 ± standard deviation) WI-38
Excerpt: as §3, §4

T24 cells = assay: CCK-8 anti-proliferative assay, T24; conditions: Homo sapiens, T-24; Table 6; co-incubated 48 h; read-out: Anti-proliferative activity (IC50 ± standard deviation) T24
Excerpt: as §3, §4

A549 cells = assay: CCK-8 anti-proliferative assay, A549; conditions: Homo sapiens, A549; Table 8; co-incubated 48 h; read-out: Anti-proliferative activity (IC50 ± standard deviation) A549
Protocol: as §1, §2

BxPC-3 cells = assay: CCK-8 anti-proliferative assay, BxPC-3; conditions: Homo sapiens, BXPC-3; Table 7; co-incubated 48 h; read-out: Anti-proliferative activity (IC50 ± standard deviation) BxPC-3
Excerpt: as §3, §4

Hep G2 cells = assay: CCK-8 anti-proliferative assay, Hep G2; conditions: Homo sapiens, HepG2; Table 8; co-incubated 48 h; read-out: Anti-proliferative activity (IC50 ± standard deviation) Hep G2
Excerpt: as §3, §4

MCF-7 cells = assay: CCK-8 anti-proliferative assay, MCF-7; conditions: Homo sapiens, MCF7; Table 8; co-incubated 48 h; read-out: Anti-proliferative activity (IC50 ± standard deviation) MCF-7
Protocol: as §1, §2

HeLa cells = assay: CCK-8 anti-proliferative assay, HeLa; conditions: Homo sapiens, HeLa; Table 8; co-incubated 48 h; read-out: Anti-proliferative activity (IC50 ± standard deviation) HeLa
Protocol: as §1, §2

J82 cells = assay: CCK-8 anti-proliferative assay, J82; conditions: Homo sapiens, J82; Table 6; co-incubated 48 h; read-out: Anti-proliferative activity (IC50 ± standard deviation) J82
Protocol: as §1, §2

UM-UC-3 cells = assay: CCK-8 anti-proliferative assay, UM-UC-3; conditions: Homo sapiens, UMUC3; Table 6; co-incubated 48 h; read-out: Anti-proliferative activity (IC50 ± standard deviation) UM-UC-3
Protocol: as §1, §2

PANC-1 cells = assay: CCK-8 anti-proliferative assay, PANC-1; conditions: Homo sapiens, PANC-1; Table 7; co-incubated 48 h; read-out: Anti-proliferative activity (IC50 ± standard deviation) PANC-1
Excerpt: as §3, §4

143B cells = assay: CCK-8 anti-proliferative assay, 143B; conditions: Homo sapiens, 143B; Table 7; co-incubated 48 h; read-out: Anti-proliferative activity (IC50 ± standard deviation) 143B
Excerpt: as §3, §4

[2] = system: immortalized ureteral epithelial cells (SV-HUC-1); assay: CCK-8 anti-proliferative assay, normal cells SV-HUC-1; conditions: Homo sapiens, SV-HUC1; Table 9; normal cells; co-incubated 48 h; read-out: Anti-proliferative activity (IC50 ± standard deviation) SV-HUC-1
Protocol: as §1, §2

COc1cc2ncnc(NCc3cccc(NC(=O)Nc4cccc(C)c4)c3)c2cc1OCCCCCCN1CCN(CCN2CCOCC2)CC1 [Compound 8-1c, N-(3-(((7-methoxy-6-((6-(4-(2-morpholinoethyl)piperazin-1-yl)hexyl)oxy)quinazolin-4-yl)amino)methyl)phenyl)-N′-(3-methylphenyl)urea]
IC50 (SK-OV-3 cells): 9.73 ± 0.69 µM
IC50 (MG-63 cells): 7.34 ± 0.65 µM
IC50 (5637 cells): 13 ± 0.85 µM
IC50 [1]: 13.9 ± 0.73 µM
IC50 (T24 cells): 11.5 ± 0.66 µM
IC50 (A549 cells): 18.4 ± 0.98 µM
IC50 (BxPC-3 cells): 16.5 ± 0.92 µM
IC50 (Hep G2 cells): 7.27 ± 0.51 µM
IC50 (MCF-7 cells): 25.8 ± 2.53 µM
IC50 (HeLa cells): > 30 µM
IC50 (J82 cells): 6.05 ± 0.63 µM
IC50 (UM-UC-3 cells): 14.1 ± 0.82 µM
IC50 (PANC-1 cells): > 30 µM
IC50 (143B cells): 13 ± 0.84 µM
IC50 [2]: 16 ± 0.81 µM

COc1cc2ncnc(NCc3cccc(NC(=O)Nc4ccc(C)cc4)c3)c2cc1OCCCCCCN1CCN(CCN2CCOCC2)CC1 [Compound 8-1d, N-(3-(((7-methoxy-6-((6-(4-(2-morpholinoethyl)piperazin-1-yl)hexyl)oxy)quinazolin-4-yl)amino)methyl)phenyl)-N′-(4-methylphenyl)urea]
IC50 (SK-OV-3 cells): 9.26 ± 0.87 µM
IC50 (MG-63 cells): 7.73 ± 0.49 µM
IC50 (5637 cells): 7.72 ± 0.66 µM
IC50 [1]: 12.6 ± 0.92 µM
IC50 (T24 cells): 6.59 ± 0.79 µM
IC50 (A549 cells): 15.8 ± 0.84 µM
IC50 (BxPC-3 cells): 13.7 ± 0.73 µM
IC50 (Hep G2 cells): 7.04 ± 0.48 µM
IC50 (MCF-7 cells): > 30 µM
IC50 (HeLa cells): 16.1 ± 0.71 µM
IC50 (J82 cells): 5.89 ± 0.57 µM
IC50 (UM-UC-3 cells): 13.2 ± 0.77 µM
IC50 (PANC-1 cells): 27.4 ± 2.24 µM
IC50 (143B cells): 8.62 ± 0.53 µM
IC50 [2]: 12.8 ± 0.66 µM

CCc1ccccc1NC(=O)Nc1cccc(CNc2ncnc3cc(OC)c(OCCCCCCN4CCN(CCN5CCOCC5)CC4)cc23)c1 [Compound 8-1g, N-(3-(((7-methoxy-6-((6-(4-(2-morpholinoethyl)piperazin-1-yl)hexyl)oxy)quinazolin-4-yl)amino)methyl)phenyl)-N′-(2-ethylphenyl)urea]
IC50 (SK-OV-3 cells): 6.38 ± 0.51 µM
IC50 (MG-63 cells): 10.9 ± 0.93 µM
IC50 (5637 cells): 22.5 ± 0.79 µM
IC50 [1]: > 30 µM
IC50 (T24 cells): 24.8 ± 0.62 µM
IC50 (A549 cells): 26.4 ± 2.59 µM
IC50 (BxPC-3 cells): 10.8 ± 0.52 µM
IC50 (Hep G2 cells): 12.7 ± 0.74 µM
IC50 (MCF-7 cells): 20.3 ± 1.88 µM
IC50 (HeLa cells): 23 ± 0.99 µM
IC50 (J82 cells): 19.7 ± 0.98 µM
IC50 (UM-UC-3 cells): 26 ± 1.79 µM
IC50 (PANC-1 cells): 13.1 ± 0.78 µM
IC50 (143B cells): 19.3 ± 0.74 µM
IC50 [2]: > 30 µM

CCc1cccc(CC)c1NC(=O)Nc1cccc(CNc2ncnc3cc(OC)c(OCCCCCCN4CCN(CCN5CCOCC5)CC4)cc23)c1 [Compound 8-1h, N-(3-(((7-methoxy-6-((6-(4-(2-morpholinoethyl)piperazin-1-yl)hexyl)oxy)quinazolin-4-yl)amino)methyl)phenyl)-N′-(2,6-diethylphenyl)urea]
IC50 (SK-OV-3 cells): 6.19 ± 0.44 µM
IC50 (MG-63 cells): 4.92 ± 0.46 µM
IC50 (5637 cells): 5.41 ± 0.36 µM
IC50 [1]: 23.2 ± 0.76 µM
IC50 (T24 cells): 6.89 ± 0.48 µM
IC50 (A549 cells): 12.3 ± 0.84 µM
IC50 (BxPC-3 cells): 7.61 ± 0.76 µM
IC50 (Hep G2 cells): 4.67 ± 0.38 µM
IC50 (MCF-7 cells): 8.49 ± 0.88 µM
IC50 (HeLa cells): 8.03 ± 0.62 µM
IC50 (J82 cells): 5.64 ± 0.39 µM
IC50 (UM-UC-3 cells): 8.74 ± 0.52 µM
IC50 (PANC-1 cells): 9.63 ± 0.92 µM
IC50 (143B cells): 4.46 ± 0.24 µM
IC50 [2]: 17.8 ± 1.59 µM
